Measured values reported in patent US10168338B2, “Methods of identifying modulators of sestrin-gator-2 interaction for modulating mTORC1 activity” (Whitehead Institute for Biomedical Research, priority 2014, dated 2019).

Experiments:
[1] = molecular target: T1, Sestrin2 (Homo sapiens, UniProt P58004); assay: [3H]-labeled amino acid binding to FLAG-Sestrin2 immunoprecipitated from HEK-293T cells
T1 construct: expressed in transfected cells; host or cells: HEK-293T, transient transfection of a pRK5-based cDNA plasmid, anti-FLAG immunoprecipitation
T1 sequence (P58004 1-480): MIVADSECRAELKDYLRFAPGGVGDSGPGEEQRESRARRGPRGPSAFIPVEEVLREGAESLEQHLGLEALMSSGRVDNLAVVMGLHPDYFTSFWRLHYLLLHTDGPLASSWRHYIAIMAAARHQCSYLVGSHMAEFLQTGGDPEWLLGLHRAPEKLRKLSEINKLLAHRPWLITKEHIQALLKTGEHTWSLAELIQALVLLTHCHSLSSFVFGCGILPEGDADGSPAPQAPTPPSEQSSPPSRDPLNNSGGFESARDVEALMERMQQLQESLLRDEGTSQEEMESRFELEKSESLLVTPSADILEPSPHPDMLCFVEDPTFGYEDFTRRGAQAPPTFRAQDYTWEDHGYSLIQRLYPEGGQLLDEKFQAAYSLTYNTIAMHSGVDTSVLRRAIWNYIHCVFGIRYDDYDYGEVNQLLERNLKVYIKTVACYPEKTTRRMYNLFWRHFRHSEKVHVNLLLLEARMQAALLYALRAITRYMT
Protocol: (§1) Four million HEK-293T cells were plated in a 15 cm plate four days prior to the experiment. Each plate yielded the protein for one sample. Forty-eight hours after plating, the cells were transfected via the polyethylenimine method (O. Boussif et al., PNAS (USA), 92:7297-7301 (1995)) with the pRK5-based cDNA expression plasmids indicated in the figures in the following amounts: 5 μgFLAG-Sestrin2; 12 μg of the negative control Rap2A; 5 μg WDR24; 2 μg WDR24 with 4 μg each of HA-Seh1L, HA-Sec13, HA-Mios, and HA-WDR59; 12 […] (CG11299-PD); 12 μgFLAG-Sestrin1.1; 12 μg FLAG-Sestrin1.2; 12 μg FLAG-Sestrin3; 12 μg FLAG-Sestrin2 mutants (L261A, E451A, S190A) and up to 20 μg total DNA with empty-PRK5. Forty-eight hours after transfection cells were lysed as described in Example 1. If multiple samples of the same type were represented in the experiment, the cell lysates were combined, mixed, and evenly distributed amongst the relevant tubes, to ensure equal protein amounts across samples of the same type.
Anti-FLAG immunoprecipitates were prepared as previously described, with the exception that, prior to incubation with lysates, the beads were blocked by rotating in 1 μg/μl bovine serum albumin (BSA) for 20 minutes at 4° C. and subsequently washed twice in lysis buffer. Thirty μl of the 50/50 slurry of beads in lysis buffer was added to each of the clarified cell lysates and incubated as previously described in Example 1.
For the binding assays, two tubes at a time were washed as previously indicated for immunoprecipitations. All the liquid was subsequently aspirated and a 15 μl aliquot of proteins bound to the beads was incubated for one hour on ice in cytosolic buffer (0.1% Triton, 40 mM HEPES pH 7.4, 10 mM NaCl, 150 mM KCl, 2.5 mM MgCl2) with the appropriate amount of [^3H]-labeled amino acids and unlabeled amino acids. Tubes were flicked every five minutes. At the end of one hour, the beads were briefly spun down, aspirated dry, and rapidly washed three times with binding wash buffer (0.1% Triton, 40 mM HEPES pH 7.4, 150 mM NaCl). The beads were aspirated dry again and resuspended in 85 μl of binding wash buffer. With a cut tip, each sample was mixed well and three 10 μl aliquots were separately quantified using a TriCarb® scintillation counter (PerkinElmer). This process was repeated in pairs for each sample, to ensure similar incubation and wash times for all samples analyzed across different experiments.
Amino acid affinities to Sestrin2 were determined by first normalizing the bound [^3H]-labeled amino acid concentrations across three separate binding assays performed with varying amounts of unlabeled amino acid competition. These values were plotted and fit to a hyperbolic equation ([…]) to estimate the IC50 value. Kd or Ki values were derived from the IC50 value using the equation: Kd or Ki=IC50/(1+([[^3H]Leucine])/Kd).

[2] = tested on: mTORC1; assay: mTORC1 signaling in HEK-293T cells (S6K1 phosphorylation immunoblot); format: cell-based, human; conditions: Homo sapiens; HEK-293T starved of leucine 50 minutes, restimulated 10 minutes; read-out: half-maximal effect on mTORC1 activity in cells
Protocol: Immunoprecipitated proteins were denatured by the addition of 50 μl of sample buffer and boiling for 5 minutes as described (Kim et al., 2002), resolved by 8%-16% SDS-PAGE, and analyzed by immunoblotting using the appropriate antibody (antibodies to phospho-T389 S6K1, S6K1, Sestrin2, mTOR, Mios and FLAG all obtained from Cell Signaling Technology; antibodies to WDR24 and WDR59 were generously provided by Jianxin Xie at Cell Signaling Technology).
In order to determine the effect of amino acids on the GATOR2-Sestrin interaction, transfected cells were incubated in amino acid free RPMI for 50 minutes and then stimulated with amino acids for 10 minutes. For glucose starvation, cells were incubated in RPMI media lacking glucose but containing amino acids and dialyzed serum for 50 minutes, followed by a 10 minute restimulation with 5 mM D-Glucose. For insulin deprivation, cells were incubated in RPMI without serum for 50 minutes and restimulated with 1 μg/ml insulin for 10 minutes. Finally, when Torin1 or Rapamycin was used, cells were incubated with 250 nM of each throughout the starvation and restimulation period.

[3] = molecular target: T2, Sestrin-GATOR2 interaction (Homo sapiens, UniProt P58004); assay: Effect of specific amino acids on Sestrin-GATOR2 interaction (FLAG-WDR24 immunoprecipitation, immunoblot); format: cell-based; conditions: HEK-293T stably expressing FLAG-WDR24; starvation/restimulation, pre- or post-lysis addition, washes of immunoprecipitates
T2 construct: To isolate the FLAG-WDR24/endogenous-Sestrin2 complex; endogenous in cells; host or cells: HEK-293T cells stably expressing FLAG-WDR24; Sestrin2 and the other GATOR2 subunits are endogenous
T2 sequence (P58004 1-480): T1 sequence (P58004 1-480)
Protocol: In order to further explore if specific amino acid levels affected the Sestrin-GATOR2 interaction, HEK-293T cells stably expressing the FLAG-tagged GATOR2 component WDR24 (and FLAG-tagged metap2 as a control) were starved of either all amino acids (ALL); only leucine, arginine, and lysine (LRK); only leucine (L); only arginine (R); or only lysine (K) for 50 minutes, or starved for 50 minutes and restimulated for 10 minutes with the indicated amino acids.
HEK-293T cells stably expressing the FLAG-tagged GATOR2 component WDR24 were starved of all amino acids for 50 minutes. Individual amino acids were added pre-lysis to the cell culture media or post-lysis to cell lysates prior to FLAG immunoprecipitation.
Finally, HEK-293T cells stably expressing the FLAG-tagged GATOR2 component WDR24 were starved of all amino acids for 50 minutes. Immunoprecipitates were subjected to washes containing the indicated amounts of leucine or arginine and analyzed along with cell lysates by immunoblotting for the indicated proteins as shown in FIG. 8C.

[4] = tested on: Sestrin1; assay: [3H]-leucine binding to FLAG-Sestrin1 immunoprecipitated from HEK-293T cells; design: species or system human; conditions: FLAG-tagged protein from HEK-293T
Protocol: as §1, with “If multiple samples of the same type were represented in the experiment, the cell lysates were combined, mixed, and evenly distributed amongst the relevant tubes, to ensure equal protein amounts across samples of the same type.” left out
For the binding assays, two tubes at a time were washed as previously indicated for immunoprecipitations. […] With a cut tip, each sample was mixed well and three 10 μl aliquots were separately quantified using a TriCarb® scintillation counter (PerkinElmer). This process was repeated in pairs for each sample, to ensure similar incubation and wash times for all samples analyzed across different experiments.

CC(C)C[C@H](N)C(=O)O [leucine]
binding of radiolabeled amino acid to Sestrin2 ([1]; FLAG-Sestrin2 from HEK-293T, competed by excess unlabeled leucine): bound to Sestrin2
Kd ([1]; competition with unlabeled leucine, 10 μM 3H-leucine, three experiments): 20 ± 5 µM
EC50 [2]: 20 to 40 µM
disruption of the Sestrin-GATOR2 interaction [3]: disrupts the Sestrin-GATOR2 interaction
binding of leucine to Sestrin1 [4]: to a similar extent as Sestrin2
